Molecular target: Beta-secretase 1 (Homo sapiens, UniProt P56817)
Assay: Inhibition of BACE1 by FRET assay

Sequence of Beta-secretase 1 (P56817 whole entry): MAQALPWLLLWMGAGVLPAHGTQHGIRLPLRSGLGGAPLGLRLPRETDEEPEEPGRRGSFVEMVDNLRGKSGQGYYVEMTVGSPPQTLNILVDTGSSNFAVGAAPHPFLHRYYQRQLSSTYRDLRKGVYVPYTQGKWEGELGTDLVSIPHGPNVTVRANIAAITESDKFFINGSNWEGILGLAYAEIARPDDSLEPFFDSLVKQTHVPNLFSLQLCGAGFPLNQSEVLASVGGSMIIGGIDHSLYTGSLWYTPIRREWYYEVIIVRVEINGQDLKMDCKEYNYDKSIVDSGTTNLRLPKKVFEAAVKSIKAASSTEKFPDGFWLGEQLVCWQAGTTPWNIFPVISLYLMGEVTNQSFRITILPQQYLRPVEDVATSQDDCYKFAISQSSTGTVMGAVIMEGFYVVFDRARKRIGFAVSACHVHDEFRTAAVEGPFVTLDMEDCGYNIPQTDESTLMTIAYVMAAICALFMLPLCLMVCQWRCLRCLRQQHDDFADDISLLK

Row | IC50 [nM] | SMILES
1 | > 30200 | NC1=N[C@@](c2cc(NC(=O)c3ccc(F)cn3)ccc2F)(C(F)F)Cn2ccnc21
2 | 44.7 | C[C@@]1(c2cc(NC(=O)c3ccn(C(F)F)n3)ccc2F)Cn2c(C#N)cnc2C(N)=N1
3 | 46.8 | C[C@@]1(c2cc(NC(=O)c3ccn(C(F)F)n3)ccc2F)Cn2cc(C(F)(F)F)nc2C(N)=N1
4 | 38.9 | C[C@@]1(c2cc(NC(=O)c3ccc(C#N)cn3)ccc2F)Cn2c(C#N)cnc2C(N)=N1

— ChEMBL document CHEMBL2150845, “BACE Inhibitors: Potential Treatment of Alzheimer's Disease, Dementia, and Related Neurodegenerative Disorders (A): 5,6-Dihydroimidazo[1,2-a]pyrazin-8-yl-amine Derivatives: Patent Highlight” (ACS Med Chem Lett, 2012)
